From patent EP4772510A2, “BENZAZEPINONE COMPOUND AND USE THEREOF” (HANGZHOU BIO-SINCERITY PHARMA-TECHCO., LTD., priority 2023, dated 2025)

Key:
HT-29 cells = experiment: Inhibition of TNF-α-induced necroptosis of HT-29 cells (SRB method); type: cell-based, human; details: Homo sapiens, HT-29, TNF-α 20 ng/mL + BV6 2 µM + Z-VAD-FMK 20 µM, 18 h
Source text: Example 57: Inhibition of TNF-α-Induced Necroptosis of HT-29 Cells by Compounds
• 1. Experimental reagents: McCOY's 5A culture medium, fetal bovine serum, penicillin-streptomycin, trypsin, PBS, TNF-α (MCE, HY-P7058), BV6 (MCE, HY-16701), Z-VAD-FMK (MCE, HY-16658B), SRB kit (Shanghai BestBio Biotechnology Co., Ltd., BB-4208-500T). • 2. Experimental instruments: medical low-temperature freezer (Thermo Fisher scientific, 902-ULTS), electrically heated thermostatic water bath (Shanghai Bluepard Instruments Co., Ltd., CD-420), low-speed centrifuge (ANHUI USTC Zonkia Scientific Instruments Co., Ltd, SC-3616), carbon dioxide incubator (Shanghai Bluepard Instruments Co., Ltd., BPN-150CH(UV)), inverted microscope (Olympus, CKX53), multi-functional microplate reader (Thermo Tecan, SPARK), class-II biosafety cabinet (AIRTECH, BSC-1304IIA2), and desktop cell counter (Thermo Fisher Scientific, Countess II). • 3. Cell culturing: HT-29 cells (human colon cancer cells) were cultured in a McCOY's 5A culture solution containing 10% fetal bovine serum and 1% penicillin-streptomycin solution in a 5% CO 2 at 37 °C and a saturated humidity, and culture medium changes and cell passaging were performed 3-4 times a week. • 4. […] The culture medium, trypsin, etc., were taken out from the freezer and transferred to the water bath for pre-heating. An appropriate amount of these substances was then taken for use. • (2) The old culture medium in the flask was aspirated using a sterile pipette and discarded, and the cells were washed 3 times with PBS. 1 mL of trypsin (25 cm^2 cell culture flask) was added into the flask, and the flask was gently shaken to allow the trypsin to cover all the cell surfaces. Digestion was performed in an incubator at 37 °C. After 2 min of digestion, the flask was placed under a microscope for observation. […] The mixture was gently pipetted using a pipette to homogenize the cells and thus prepare a single-cell suspension, and the cells were counted. • (5) The cells were diluted to 3 × 10^5/mL and seeded into a 96-well plate at 100 µL/well, such that there were 3 × 10^4 cells per well in the 96-well plate. The cells were incubated in a 5% CO2 incubator at 37 °C and a saturated humidity for 24 h, followed by the addition of compounds. • 4.2 Dilution and addition of compounds: • (1) TNF-α was dissolved in PBS to obtain a 100 µg/mL stock solution and aliquoted; Z-VAD-FMK was dissolved in DMSO to obtain a 10 mM stock solution and aliquoted; BV6 was dissolved in DMSO to obtain a 10 mM stock solution and aliquoted; GSK2982772 was dissolved in DMSO to obtain a 10 mM stock solution and aliquoted. One aliquot of each stock solution was stored at -20 °C for immediate use, while the remaining aliquots were stored at - 80 °C and used within their shelf life. • (2) McCOY's 5A culture solution containing TNF-α, BV6, and Z-VAD-FMK was prepared. For the positive control group and the test compound groups, the McCOY's 5A culture solution was added at 90 µL/well, and 10 µL of the culture medium containing the test compound was also added, thus making the final concentrations of TNF-α, BV6, and Z-VAD-FMK be 20 ng/mL, 2 µM, and 20 µM, respectively. For the DMSO (5‰) control group, 90 µL of the McCOY's 5A complete culture solution was added, and then 10 µL of DMSO was added, thus making the final concentration 5‰. • (3) Each target compound was three-fold diluted with a culture medium to 8 concentration gradients, with each concentration set in duplicate (10 µL/well). The final concentrations of each target compound were 1000.00/333.33/111.11/37.04/12.35/4.12/1.37/0.46 nM. • (4) The 96-well plate cultured for 24 h was taken out from the incubator, and the culture medium in the 96-well plate was carefully aspirated and discarded. A positive control group, test compound groups, and a DMSO (5‰) control group were set, and 10 µL of the corresponding compound was added to each group. […]

U937 cells = experiment: Inhibition of TNF-α-induced necroptosis of U937 cells (CCK-8 assay); type: cell-based, human; details: Homo sapiens, U-937, TNF-α 20 ng/mL + BV6 2 µM + Z-VAD-FMK 20 µM, 18 h
Source text: Example 56: Inhibition of TNF-α-Induced Necroptosis of U937 Cells by Compounds
• 1. Experimental reagents: RPMI-1640 culture medium, fetal bovine serum, penicillin-streptomycin, TNF-α (MCE, HY-P7058), BV6 (MCE, HY-16701), Z-VAD-FMK (MCE, HY-16658B), and CCK-8 (Dalian Meilun Biotech Co., Ltd., MA0218). • 2. Experimental instruments: medical low-temperature freezer (Thermo Fisher scientific, 902-ULTS), electrically heated thermostatic water bath (Shanghai Bluepard Instruments Co., Ltd., CD-420), low-speed centrifuge (ANHUI USTC Zonkia Scientific Instruments Co., Ltd, SC-3616), carbon dioxide incubator (Shanghai Bluepard Instruments Co., Ltd., BPN-150CH(UV)), inverted microscope (Olympus, CKX53), multi-functional microplate reader (Thermo Tecan, SPARK), class-II biosafety cabinet (AIRTECH, BSC-1304IIA2), and desktop cell counter (Thermo Fisher Scientific, Countess II). • 3. Cell culturing: U937 cells (human histiocytic lymphoma cells) were cultured in an RPMI-1640 culture solution containing 10% fetal bovine serum and 1% penicillin-streptomycin solution in a 5% CO2 incubator at 37 °C and a saturated humidity. The cell culture flask was vertically placed in the incubator. A T25 culture flask was used as an example, the culture solution in the flask was 6-8 mL, and culture medium changes and cell passaging were performed 3-4 times a week. • 4. […] The culture medium was taken out from the freezer and transferred to the water bath for pre-heating. An appropriate amount of culture medium was then taken for use. • (2) The cell suspension was transferred to a 15 mL sterile centrifuge tube and centrifuged at 850 rpm for 4 min to collect U937 cells. • (3) The supernatant was carefully discarded, and an appropriate amount of culture medium was added. The mixture was gently pipetted using a pipette to homogenize the cells and thus prepare a single-cell suspension, and the cells were counted. • (4) The cells were diluted to 4 × 10^5/mL and seeded into a 96-well plate at 90 µL/well, such that the cell density in the 96-well plate was 3.6 × 10 ^4 cells/well. The cells were incubated in a 5% CO 2 incubator at 37 °C and a saturated humidity for 6 h, followed by the addition of compounds. • 4.2 Dilution and addition of compounds: • (1) TNF-α was dissolved in PBS to obtain a 100 µg/mL stock solution and aliquoted; Z-VAD-FMK was dissolved in DMSO to obtain a 10 mM stock solution and aliquoted; BV6 was dissolved in DMSO to obtain a 10 mM stock solution and aliquoted; GSK2982772 was dissolved in DMSO to obtain a 10 mM stock solution and aliquoted. One aliquot of each stock solution was stored at -20 °C for immediate use, while the remaining aliquots were stored at - 80 °C and used within their shelf life. • (2) RPMI-1640 culture medium containing TNF-α, BV6, and Z-VAD-FMK was prepared (5 µL/per well), such that the final concentrations of TNF-α, BV6, and Z-VAD-FMK were 20 ng/mL, 2 µM, and 20 µM, respectively. • (3) Each target compound was three-fold diluted with a culture medium to 8 concentration gradients, with each concentration set in duplicate (5 µL/well). The final concentrations of each target compound were 1000.00/333.33/111.11/37.04/12.35/4.12/1.37/0.46 nM. • (4) The 96-well plate containing 90 µL of cell suspension was taken out from an incubator, and a positive control group, test compound groups, and a DMSO (5‰) control group were set. 5 µL of RPMI-1640 culture solution containing TNF-α, BV6, and Z-VAD-FMK and 5 µL of culture solution containing the test compound were added to the positive control group and the test compound groups. After compound addition, the mixtures were cultured for 18 h, followed by the CCK-8 assay. • (5) The 96-well plate was taken out, and the CCK-8 reagent was carefully added at 10 µL/well. The mixtures were incubated at 37 °C for 2-4 h, and the absorbance value was measured at a wavelength of 450 nm. • 5. Evaluation of inhibitory activity of compounds on TNF-α-induced necroptosis of U937 [formula] […]

Molecule `Cn1cc(C#Cc2cc3c4c(c2)CCN4C(=O)C(NC(=O)c2ncn(Cc4ccccc4F)n2)CC3)cn1` (stereo not shown) [III-7, 1-(2-fluorobenzyl)-N-(9-((1-methyl-1H-pyrazol-4-yl)ethynyl)-4-oxo-1,2,3,4,6,7-hexahydroazepino[3,2,1-hi]indol-3-yl)-1H-1,2,4-triazole-3-carboxamide] has an EC50 (HT-29 cells) of 10 to 100 nM and an EC50 (U937 cells) of under 5 nM.

`Cn1cc(C#Cc2cc3c4c(c2)CCN4C(=O)C(NC(=O)c2ncn(Cc4ccc(F)cc4)n2)CC3)cn1` (stereo not shown) [III-8, 1-(4-fluorobenzyl)-N-(9-((1-methyl-1H-pyrazol-4-yl)ethynyl)-4-oxo-1,2,3,4,6,7-hexahydroazepino[3,2,1-hi]indol-3-yl)-1H-1,2,4-triazole-3-carboxamide] showed an EC50 (HT-29 cells) of 10 to 100 nM and an EC50 (U937 cells) of 5 to 10 nM.

In the case of `Cn1cc(C#Cc2cc3c4c(c2)CCN4C(=O)C(NC(=O)c2ncn(Cc4ccc(F)cc4F)n2)CC3)cn1` (stereo not shown) [III-9, 1-(2,4-difluorobenzyl)-N-(9-((1-methyl-1H-pyrazol-4-yl)ethynyl)-4-oxo-1,2,3,4,6,7-hexahydroazepino[3,2,1-hi]indol-3-yl)-1H-1,2,4-triazole-3-carboxamide], the EC50 (HT-29 cells) is reported as under 5 nM and the EC50 (U937 cells) is reported as under 5 nM.

For `Cn1cc(C#Cc2cc3c4c(c2)CCN4C(=O)C(NC(=O)c2ncn(Cc4cc(F)cc(F)c4)n2)CC3)cn1` (stereo not shown) [III-11, 1-(3,5-difluorobenzyl)-N-(9-((1-methyl-1H-pyrazol-4-yl)ethynyl)-4-oxo-1,2,3,4,6,7-hexahydroazepino[3,2,1-hi]indol-3-yl)-1H-1,2,4-triazole-3-carboxamide], the EC50 (HT-29 cells) was under 5 nM and the EC50 (U937 cells) was under 5 nM.

In the case of `Cc1ccccc1Cn1cnc(C(=O)NC2CCc3cc(C#Cc4cnn(C)c4)cc4c3N(CC4)C2=O)n1` (stereo not shown) [III-13, N-(9-((1-methyl-1H-pyrazol-4-yl)ethynyl)-4-oxo-1,2,3,4,6,7-hexahydroazepino[3,2,1-hi]indol-3-yl)-1-(2-methylbenzyl)-1H-1,2,4-triazole-3-carboxamide], the EC50 (HT-29 cells) is reported as 5 to 10 nM and the EC50 (U937 cells) is reported as under 5 nM.

In the case of `Cc1ccc(Cn2cnc(C(=O)NC3CCc4cc(C#Cc5cnn(C)c5)cc5c4N(CC5)C3=O)n2)cc1` (stereo not shown) [III-14, N-(9-((1-methyl-1H-pyrazol-4-yl)ethynyl)-4-oxo-1,2,3,4,6,7-hexahydroazepino[3,2,1-hi]indol-3-yl)-1-(4-methylbenzyl)-1H-1,2,4-triazole-3-carboxamide], the EC50 (HT-29 cells) is reported as 5 to 10 nM and the EC50 (U937 cells) is reported as under 5 nM.

`O=C(NC1CCc2cc(C#CC3CCNCC3)cc3c2N(CC3)C1=O)c1ncn(Cc2c(F)cccc2F)n1` (stereo not shown) [III-15, 1-(2,6-difluorobenzyl)-N-(4-oxo-9-(piperidin-4-ylethynyl)-1,2,3,4,6,7-hexahydroazepino[3,2,1-hi]indol-3-yl)-1H-1,2,4-triazole-3-carboxamide] gave an EC50 (HT-29 cells) of under 5 nM and an EC50 (U937 cells) of under 5 nM.

`CC(C)(C)OC(=O)N1CCC(C#Cc2cc3c4c(c2)CCN4C(=O)C(NC(=O)c2ncn(Cc4c(F)cccc4F)n2)CC3)CC1` (stereo not shown) [III-16, tert-butyl 4-((3-(1-(2,6-difluorobenzyl)-1H-1,2,4-triazole-3-carboxamido)-4-oxo-1,2,3,4,6,7-hexahydroazepino[3,2,1-hi]indol-9-yl)ethynyl)piperidine-1-carboxylate] was tested, and the EC50 (HT-29 cells) was 10 to 100 nM and the EC50 (U937 cells) was under 5 nM.

Work on `O=C(NC1CCc2cc(C#Cc3cnn(C(F)F)c3)cc3c2N(CC3)C1=O)c1ncn(Cc2cc(F)cc(F)c2)n1` (stereo not shown) [III-18, 1-(3,5-difluorobenzyl)-N-(9-((1-(difluoromethyl)-1H-pyrazol-4-yl)ethynyl)-4-oxo-1,2,3,4,6,7-hexahydroazepino[3,2,1-hi]indol-3-yl)-1H-1,2,4-triazole-3-carboxamide] yielded an EC50 (HT-29 cells) of 5 to 10 nM and an EC50 (U937 cells) of 10 to 100 nM.

In the case of `O=C(NC1CCc2cc(C#Cc3cnn(C(F)F)c3)cc3c2N(CC3)C1=O)c1ncn(Cc2ccc(F)cc2F)n1` (stereo not shown) [III-20, 1-(2,4-difluorobenzyl)-N-(9-((1-(difluoromethyl)-1H-pyrazol-4-yl)ethynyl)-4-oxo-1,2,3,4,6,7-hexahydroazepino[3,2,1-hi]indol-3-yl)-1H-1,2,4-triazole-3-carboxamide], the EC50 (HT-29 cells) is reported as 5 to 10 nM and the EC50 (U937 cells) is reported as 5 to 10 nM.

`Cc1ccccc1Cn1cnc(C(=O)NC2CCc3cc(C#Cc4cnn(C(F)F)c4)cc4c3N(CC4)C2=O)n1` (stereo not shown) [III-22, N-(9-((1-(difluoromethyl)-1H-pyrazol-4-yl)ethynyl)-4-oxo-1,2,3,4,6,7-hexahydroazepino[3,2,1-hi]indol-3-yl)-1-(2-methylbenzyl)-1H-1,2,4-triazole-3-carboxamide] showed an EC50 (HT-29 cells) of 5 to 10 nM and an EC50 (U937 cells) of 10 to 100 nM.
